Assay results reported in patent US7291217B2, “Non-toxic corrosion-protection pigments based on rare earth elements” (University of Dayton, priority 2002, dated 2007).
“And” between values parts separate entries of the source, which are not always exact repeats. Identical values can stand only once.

Tests used:
[1] = Static salt fog accelerated corrosion test (ASTM B-117) of PVB wash primer containing the pigment, rated by ASTM D-1654; details: ASTM D-1654 rating; for B-117 Proc. A: failure at scribe; for B-117 Proc. B: unscribed areas
Method: (§1) The corrosion-inhibiting performance of CeIV pigments was evaluated by incorporating them into primer paint formulations. […] The wash primer is composed of a resin, an acid, a corrosion-inhibiting pigment, powdered talc, and carbon lampblack. The acid content of this wash primer provides a rigorous initial test of the stability and performance of the pigments. Other, more benign, polymer-based binder and resin systems might not separate the compounds based on their performance as effectively or as rapidly.
(§2) PVB was used exclusively throughout testing to avoid preparation and compositional complications during analysis of pigment performance. However, the invention is not limited to the use of PVB.
(§3) A small amount (0.2 g) of powdered talc (magnesium silicate) “filler” was added. Lampblack was not added to these samples. These components were mixed thoroughly by hand and 3.8 grams of phosphoric acid diluent added with further mixing. This rough processing allowed direct comparisons of pigment performance to be made without complications due to powder treatments, modifications, and additives.
(§4) This is not the conventional paint application procedure for aluminum alloys. Under normal service conditions, aluminum alloys are first subjected to a hexavalent chromium-containing conversion coating prior to primer application. However, the conversion coating was omitted so that the performance of the pigment alone could be evaluated and not the synergistic effects of hexavalent chromium (in the conversion coating) or even of barrier films (in the phosphate or anodized coatings).
(§5) This accelerated corrosion test exposes samples to a constant salt-water fog and is a de facto test of solubility for corrosion inhibitors. […] This accelerated corrosion test exposes samples to a cycle of fog of dilute salt and ammonium sulfate at room temperature followed by forced-air drying at an elevated temperature.
(§6) After the paint dried for 24 hours, each plate was scribed with an X and the plate edges were sealed with PVC tape to eliminate corrosion edge effects.
(§7) Two visual observations are associated with this rating test. Procedure A involves a rating of the failure at the scribe—the representative creepage of corrosion away from the scribe. […] In this way, not only the bulk corrosion-inhibiting action of a pigment through the binder can be rated, but also its “throwing power”.

[2] = Cyclic Prohesion accelerated corrosion test (ASTM G-85.5) of PVB wash primer containing the pigment, rated by ASTM D-1654; details: ASTM D-1654 rating; for G-85 Proc. A: failure at scribe; for G-85 Proc. B: unscribed areas
Method: as §1, §2, §3, §4, §5, §6, §7

[3] = in acidic solution; reduction to the trivalent ion; Nugent et al. 1971; cited from earlier work
[4] = 2024-T3, 117 h, inhibitor conc. 1.86 × 10^−3 M (25% of Cr), two cells per column
[5] = 7075-T6, 117 h, inhibitor conc. 1.86 × 10^−3 M (25% of Cr), two cells per column
[6] = 2024-T3, 117 h, inhibitor conc. 7.44 × 10^−4 M (10% of Cr), sample and duplicate
[7] = 7075-T6, 117 h, inhibitor conc. 7.44 × 10^−4 M (10% of Cr), sample and duplicate
[8] = 2024-T3, 139 h, inhibitor conc. 7.44 × 10^−4 M (10% of Cr), sample and duplicate
[9] = 7075-T6, 139 h, inhibitor conc. 7.44 × 10^−4 M (10% of Cr), sample and duplicate
[10] = 2024-T3, 144 h, inhibitor conc. 5.2 × 10^−4 M (7% of Cr), sample and duplicate
[11] = 7075-T6, 144 h, inhibitor conc. 5.2 × 10^−4 M (7% of Cr), sample and duplicate
[12] = 2024-T3, 139 h, inhibitor conc. 3.72 × 10^−3 M (50% of Cr), sample and duplicate
[13] = 7075-T6, 139 h, inhibitor conc. 3.72 × 10^−3 M (50% of Cr), sample and duplicate
[14] = 2024-T3, 144 h, inhibitor conc. 3.72 × 10^−3 M (50% of Cr), sample and duplicate
[15] = 7075-T6, 144 h, inhibitor conc. 3.72 × 10^−3 M (50% of Cr), sample and duplicate

For CCCCC[N+](CCCCC)(CCCCC)CCCCC.CCCCC[N+](CCCCC)(CCCCC)CCCCC.O=[N+]([O-])[O-].O=[N+]([O-])[O-].O=[N+]([O-])[O-].O=[N+]([O-])[O-].O=[N+]([O-])[O-].O=[N+]([O-])[O-].[Ce+4] [Nitrate/NPe4^+], the “B-117 Proc. A” value [1, 4] was 6, the “B-117 Proc. A” value [1, 5] was 6 and the “B-117 Proc. B” value [1, 4] was 5. The “B-117 Proc. B” value [1, 5] was 6, the “G-85 Proc. A” value [2, 4] was 9 and the “G-85 Proc. A” value [2, 5] was 9. For the same compound, the “G-85 Proc. B” value [2, 4] was 8 and the “G-85 Proc. B” value [2, 5] was 7.
In the case of magnesium 10-tungstocerate, the “B-117 Proc. A” value [1, 6] is reported as 5, the “B-117 Proc. A” value [1, 7] is reported as 5 and 4 and the “B-117 Proc. B” value [1, 6] is reported as 2. For the same compound, the “B-117 Proc. B” value [1, 7] was 2, the “G-85 Proc. A” value [2, 6] was 9 and the “G-85 Proc. A” value [2, 7] was 8. For the same compound, the “G-85 Proc. B” value [2, 6] was 8 and the “G-85 Proc. B” value [2, 7] was 7.
For CC[N+](CC)(CC)CC.CC[N+](CC)(CC)CC.O=[N+]([O-])[O-].O=[N+]([O-])[O-].O=[N+]([O-])[O-].O=[N+]([O-])[O-].O=[N+]([O-])[O-].O=[N+]([O-])[O-].[Ce+4] [Nitrate/NEt4^+], the “B-117 Proc. A” value [1, 4] was 6, the “B-117 Proc. A” value [1, 5] was 6 and 5 and the “B-117 Proc. B” value [1, 4] was 3. The “B-117 Proc. B” value [1, 5] was 4, the “G-85 Proc. A” value [2, 4] was 9 and 10 and the “G-85 Proc. A” value [2, 5] was 10. The “G-85 Proc. B” value [2, 4] was 7 and 8 and the “G-85 Proc. B” value [2, 5] was 8.
For [Pr+4] [Pr^+4], the calculated redox potential [3] is given as 3.2 V.
With calcium 11-phosphotungstocerate the “B-117 Proc. A” value [1, 8] was 6 and 5, the “B-117 Proc. A” value [1, 9] was 4 and the “B-117 Proc. B” value [1, 8] was 4. For the same compound, the “B-117 Proc. B” value [1, 9] was 3, the “G-85 Proc. A” value [2, 8] was 8 and 7 and the “G-85 Proc. A” value [2, 9] was 6. For the same compound, the “G-85 Proc. B” value [2, 8] was 8 and 7 and the “G-85 Proc. B” value [2, 9] was 5 and 6.
With calcium 12-molybdocerate the “B-117 Proc. A” value [1, 10] was 6 and 7, the “B-117 Proc. A” value [1, 11] was 7 and the “B-117 Proc. B” value [1, 10] was 4 and 5. For the same compound, the “B-117 Proc. B” value [1, 11] was 6, the “G-85 Proc. A” value [2, 10] was 8 and 7 and the “G-85 Proc. A” value [2, 11] was 8 and 7. For the same compound, the “G-85 Proc. B” value [2, 10] was 6 and the “G-85 Proc. B” value [2, 11] was 7 and 5.
For ammonium 18-vanadatocerate, the “B-117 Proc. A” value [1, 12] was 7, the “B-117 Proc. A” value [1, 13] was 7 and the “B-117 Proc. B” value [1, 12] was 6. The “B-117 Proc. B” value [1, 13] was 6, the “G-85 Proc. A” value [2, 12] was 7 and 8 and the “G-85 Proc. A” value [2, 13] was 8. The “G-85 Proc. B” value [2, 12] was 6 and 7 and the “G-85 Proc. B” value [2, 13] was 6 and 7.
For CCCC[N+](CCCC)(CCCC)CCCC.CCCC[N+](CCCC)(CCCC)CCCC.O=[N+]([O-])[O-].O=[N+]([O-])[O-].O=[N+]([O-])[O-].O=[N+]([O-])[O-].O=[N+]([O-])[O-].O=[N+]([O-])[O-].[Ce+4] [Nitrate/NBu4^+], the “B-117 Proc. A” value [1, 4] was 7, the “B-117 Proc. A” value [1, 5] was 7 and 6 and the “B-117 Proc. B” value [1, 4] was 5 and 6. For the same compound, the “B-117 Proc. B” value [1, 5] was 6, the “G-85 Proc. A” value [2, 4] was 9 and the “G-85 Proc. A” value [2, 5] was 9. The “G-85 Proc. B” value [2, 4] was 8 and the “G-85 Proc. B” value [2, 5] was 8.
For magnesium 11-phosphotungstocerate, the “B-117 Proc. A” value [1, 8] was 6, the “B-117 Proc. A” value [1, 9] was 5 and the “B-117 Proc. B” value [1, 8] was 5. For the same compound, the “B-117 Proc. B” value [1, 9] was 5, the “G-85 Proc. A” value [2, 8] was 7 and the “G-85 Proc. A” value [2, 9] was 7. For the same compound, the “G-85 Proc. B” value [2, 8] was 6 and the “G-85 Proc. B” value [2, 9] was 6.
For calcium 10-tungstocerate, the “B-117 Proc. A” value [1, 6] was 3, the “B-117 Proc. A” value [1, 7] was 2 and the “G-85 Proc. A” value [2, 6] was 7. The “G-85 Proc. A” value [2, 7] was 7, the “G-85 Proc. B” value [2, 6] was 6 and the “G-85 Proc. B” value [2, 7] was 6.
With C[N+](C)(C)C.C[N+](C)(C)C.O=[N+]([O-])[O-].O=[N+]([O-])[O-].O=[N+]([O-])[O-].O=[N+]([O-])[O-].O=[N+]([O-])[O-].O=[N+]([O-])[O-].[Ce+4] [Nitrate/NMe4^+] the “G-85 Proc. A” value [2, 4] was 8 and 7, the “G-85 Proc. A” value [2, 5] was 8 and 7 and the “G-85 Proc. B” value [2, 4] was 7 and 6. For the same compound, the “G-85 Proc. B” value [2, 5] was 7 and 6.
For lithium periodatocerate, the “B-117 Proc. A” value [1, 14] was 6 and 5, the “B-117 Proc. A” value [1, 15] was 4 and the “B-117 Proc. B” value [1, 14] was 6 and 5. For the same compound, the “B-117 Proc. B” value [1, 15] was 2 and 3, the “G-85 Proc. A” value [2, 14] was 7 and the “G-85 Proc. A” value [2, 15] was 7. The “G-85 Proc. B” value [2, 14] was 7 and the “G-85 Proc. B” value [2, 15] was 7.
In the case of CCC[N+](CCC)(CCC)CCC.CCC[N+](CCC)(CCC)CCC.O=[N+]([O-])[O-].O=[N+]([O-])[O-].O=[N+]([O-])[O-].O=[N+]([O-])[O-].O=[N+]([O-])[O-].O=[N+]([O-])[O-].[Ce+4] [Nitrate/NPr4^+], the “B-117 Proc. A” value [1, 4] is reported as 7, the “B-117 Proc. A” value [1, 5] is reported as 7 and the “B-117 Proc. B” value [1, 4] is reported as 7 and 6. For the same compound, the “B-117 Proc. B” value [1, 5] was 6, the “G-85 Proc. A” value [2, 4] was 9 and 10 and the “G-85 Proc. A” value [2, 5] was 9 and 8. The “G-85 Proc. B” value [2, 4] was 8 and 9 and the “G-85 Proc. B” value [2, 5] was 7.
In the case of CCCCCCCC[N+](C)(CCCCCCCC)CCCCCCCC.CCCCCCCC[N+](C)(CCCCCCCC)CCCCCCCC.O=[N+]([O-])[O-].O=[N+]([O-])[O-].O=[N+]([O-])[O-].O=[N+]([O-])[O-].O=[N+]([O-])[O-].O=[N+]([O-])[O-].[Ce+4] [Nitrate/Adogen 464], the “B-117 Proc. A” value [1, 4] is reported as 5, the “B-117 Proc. A” value [1, 5] is reported as 5 and the “B-117 Proc. B” value [1, 4] is reported as 5. The “B-117 Proc. B” value [1, 5] was 3 and 5, the “G-85 Proc. A” value [2, 4] was 7 and the “G-85 Proc. A” value [2, 5] was 7. The “G-85 Proc. B” value [2, 4] was 6 and the “G-85 Proc. B” value [2, 5] was 6.
